Data from patent publication US20180338937A1, “PHARMACEUTICAL PREPARATIONS” (Analyticon Discovery GmbH, priority 2015, published 2018).

What was measured:
[1] = cited from earlier work
cyclooxygenase = conditions: U.S. Pat. No. 6,365,634 B1 (RUSSEL); cited from earlier work
[2] = Sensory tasting of a Nurofen ® tablet solution, sip and spit; type: in vivo, human; conditions: Nurofen ® tablets dissolved in water, ibuprofen 5 mg/ml, 25 μM dehydroabietic acid, 0.5% ethanol, vs comparison sample
Procedure: Taste Modulation of Ibuprofen in the Form of Tablets with Lysine (Nurofen®) The sensory evaluation of the samples was performed by a team of five experienced assessors.

[3] = Sensory tasting of a Calpol ® solution, sip and spit, five assessors; type: in vivo, human; conditions: Calpol ® suspension in water, paracetamol 12.5 mg/ml, 25 μM dehydroabietic acid, 0.5% ethanol
Procedure: Taste Modulation of Paracetamol in a Commercially Available Formulation The sensory evaluation of the samples was performed by a team of five experienced assessors. Details may be taken from the following Table 1: [table]

[4] = Sensory tasting of a solution of an ibuprofen suspension (Asda), sip and spit; type: in vivo, human; conditions: Ibuprofen suspension (orange taste, no sweeteners) in water, ibuprofen 5 mg/ml, 25 μM dehydroabietic acid, 0.5% ethanol, vs comparison sample
Procedure: Taste Modulation of Ibuprofen in Suspension (Asda) The sensory evaluation of the samples was performed by a team of five experienced assessors. Details may be taken from the following Table 5: [table]

[5] = Sensory tasting of a maltitol/ibuprofen solution, sip and spit; type: in vivo, human; conditions: Ibuprofen/maltitol syrup in water, 25 μM dehydroabietic acid, 0.5% ethanol, vs comparison sample
[6] = Sensory tasting of a maltitol/paracetamol solution, sip and spit; type: in vivo, human; conditions: Paracetamol/maltitol syrup in water, paracetamol 12.5 mg/ml, 25 μM dehydroabietic acid, 0.5% ethanol, vs comparison sample
Procedure: Taste Modulation of Paracetamol in a Maltitol Formulation The sensory evaluation of the samples was performed by a team of five experienced assessors. Details may be taken from the following Table 2: [table]

[7] = Sepulveda et al., Pharmacol. Res. 52(5), 429-437 (2005); cited from earlier work
[8] = Sensory tasting of a solution of a Nurofen ® suspension, sip and spit; type: in vivo, human; conditions: Nurofen ® suspension dissolved in water, ibuprofen 5 mg/ml, 25 μM dehydroabietic acid, 0.5% ethanol, vs comparison sample
Procedure: Taste Modulation of Ibuprofen in Suspension (Nurofen®) The sensory evaluation of the samples was performed by a team of five experienced assessors.

In the case of `C=C1C[C@@]23CC[C@H]4[C@@](C)(CCC[C@@]4(C)C(=O)O[C@@H]4O[C@H](CO)[C@@H](O)[C@H](O)[C@H]4O)[C@@H]2CC[C@]1(O[C@@H]1O[C@H](CO)[C@@H](O)[C@H](O)[C@H]1O[C@@H]1O[C@H](CO)[C@@H](O)[C@H](O)[C@H]1O)C3` [stevioside], the “daily uptake considered harmless” value [1] is given as “up to 4 mg stevioside per kilogramme of bodyweight”.

In the case of `CC(C)c1ccc2c(c1)CC[C@H]1[C@](C)(C(=O)O)CCC[C@]21C` [dehydroabietic acid], the “inhibition of the cyclooxygenase” value (cyclooxygenase) is listed as “inhibit the cyclooxygenase”, the “Evaluation of the sample: bitterness” value [2] is listed as “reduced bitterness” and the “Evaluation of the sample: delayed burning sensation in the throat” value [2] is listed as “no change to the delayed burning”. For the same compound, the “Evaluation of the sample: metallic taste” value ([3]; vs comparison sample) was “metallic taste reduced”, the “Evaluation of the sample: bitterness” value ([3]; vs comparison sample without dehydroabietic acid) was “very significantly less bitter” and the “Evaluation of the sample: bitterness” value [4] was “less bitter”. The “Evaluation of the sample: orange aroma” value [4] was “intensification of the orange aroma”, the “Evaluation of the sample: overall taste” value [4] was “more pleasant taste” and the “Evaluation of the sample: sweetness” value [4] was “more sweet”. For the same compound, the “Evaluation of the sample: aftertaste” value ([5]; 5 mg/ml) was “less unpleasant aftertaste”, the “Evaluation of the sample: burning sensation on the tongue/in the throat” value ([5]; 5 mg/ml) was “alleviation of the burning sensation” and the “Evaluation of the sample: mouth dryness” value ([5]; 5 mg/ml) was “reduced mouth dryness”. The “Evaluation of the sample: sweetness” value ([5]; 5 mg/ml) was “slightly sweet”, the “Evaluation of the sample: bitterness” value ([5]; ibuprofen 5 mg/ml) was “less bitter” and the “Evaluation of the sample: aftertaste” value [6] was “pleasant aftertaste”. For the same compound, the “Evaluation of the sample: bitterness” value [6] was “Bitterness reduced and delayed”, the “Evaluation of the sample: taste at the beginning” value [6] was “better taste at the beginning and more” and the “Evaluation of the sample: unpleasant/metallic taste” value [6] was “no long-lasting unpleasant/metallic taste”. For the same compound, the gastroprotective properties [7] was “has gastroprotective properties” and the “Evaluation of the sample: typical natural taste of ibuprofen” value [8] was “Masking of the typical natural taste”.
